Reference: US20250248980A1, “IMMUNE MODULATORY AGENTS” (PRESIDENT AND FELLOWS OF HARVARD COLLEGE, priority 2022, published 2025)
“Also recorded” adds a separate entry of the source.

What was measured:
Assay type in all cases: cell-based
TNF-a downstream genes = assay: TNF-a-dependent gene expression in three cell lines (RT-qPCR, secondary assays, FIG. 12); conditions: 10 μM compound, 5 ng/ml TNF-a, 24 hours, THP-1, 293T, HepG2 cells
Method: (§1) THP-1 (FIG. 12A), 293T (FIG. 12B), and HepG2 (FIG. 12C) cells were cultured and stimulated with 5 ng/ml TNF-a for 24 hours. During the treatment, 10 μM of each compound was added. RT-qPCR was used to analyze the expression levels of selected TNF-a downstream genes (IL1b, CCL4 and CXCL1 in THP-1 cells in FIG. 12A; IL18, VCAM, and CXCL10 in 293T cells in FIG. 12B; and IL18, CXCL1, and CXCL5 in HepG2 cells in FIG. 12C).

[1] = tested on: TNF-a downstream genes in HepG2 cells; assay: TNF-a-dependent gene expression in HepG2 cells (RT-qPCR, FIG. 12C); conditions: 10 μM compound, 5 ng/ml TNF-a, 24 hours; IL18, CXCL1, CXCL5
Method: as §1

[2] = target: T1, TNF-a receptor (TNF-R1 reporter cells) (Homo sapiens, UniProt P19438); assay: TNF-a-receptor GFP reporter cell screen; conditions: for specificity for TNF-a-receptor reporter over other cytokine receptor reporters: in words; for IC50 / Emax: reducing TNF-a-receptor reporter activities; for IC50: GFP percentage by microscope, 48 hours; for Emax: maximal effect at high compound concentrations, read-out: Emax
T1 construct: expressed in transfected cells; development described in WO2022125865A2
Method: FIG. 5 is a dot plot showing the identification of small-molecule compounds that reduce IL-17A or TNF-a receptor activities. Small-molecule screens were performed with 114,665 compounds. Individual compounds were added to IL-17A-reporters or TNF-a-reporters following the addition of respective ligands such as IL-17A or TNF-a (25 ng/ml). The reporter cells were then incubated for additional 48 hours before subjecting them for microscopic analyses (GFP percentage was measured by microscope). Anti-IL17A and anti-TNFa antibodies were used as the positive controls.
The IL-17RA/IL-17RC reporter system was used to identify the IL-17a-specific immune modulatory agents, as described herein (see e.g., compounds (1)-(16)). Furthermore, the IL-17A systems and methods were applied to generate other cytokine/cytokine receptor reporter system (tTA fused onto one receptor subunit via a protease cleavage site, TEV fused to another receptor subunit, optimal linkers inserted between different proteins to ensure high signal-to-background ratio; e.g., for identifying TNF-α-specific immune modulatory agents). The screening platform provided herein was used to identify immune modulatory agents including, but not limited to, small molecules and proteins that modulate IL-17A or TNF-α cytokine signaling.
Two thousand reporter cells per well (384-well plates) were seeded in 30 ul cell culture medium with either IL-17A (25 ng/ml, unless otherwise indicated) or TNFa ligand (25 ng/ml, unless otherwise indicated); additional screens were performed with IL-17A at 7.5 ng/ml. Then 100 nl of the individual compound was added by a pin transfer and cultured for two days in a CO2 incubator. For the cell viability test, 10 ul HOECHST 33342 was added and incubated for 10 min, followed by the addition of 10 ul 4% PFA. After a 10 min incubation, the reporter cells were washed twice with phosphate-buffered saline (PBS) and kept in 30 ul PBS. The images were acquired and analyzed using an IMAGEXPRESS confocal microscope. For storage, plates were sealed with black light-absorbing films.

[3] = tested on: TNF-a downstream genes in THP-1 cells; assay: TNF-a-dependent gene expression in THP-1 cells (RT-qPCR, FIG. 12A); conditions: 10 μM compound, 5 ng/ml TNF-a, 24 hours; IL1b, CCL4, CXCL1
Method: as §1

[4] = tested on: TNF-a downstream genes in 293T cells; assay: TNF-a-dependent gene expression in 293T cells (RT-qPCR, FIG. 12B); conditions: 10 μM compound, 5 ng/ml TNF-a, 24 hours; IL18, VCAM, CXCL10
Method: as §1

| Structure (SMILES) | effect on TNF-a-dependent gene expression (TNF-a downstream genes) | effect on TNF-a-dependent gene expression in HepG2 cells [1] | specificity for TNF-a-receptor reporter over other cytokine receptor reporters [2] | IC50 [2] | Emax [2] | effect on TNF-a-dependent gene expression in THP-1 cells [3] | effect on TNF-a-dependent gene expression in 293T cells [4] |
| --- | --- | --- | --- | --- | --- | --- | --- |
| CC(C)CCN1C2CCNc3ccccc3CN(C(=O)CCCn3cncn3)CC1CC2 (racemic) [Compound 43] | inhibitory effects against some of TNF-a downstream genes |  |  |  |  |  |  |
| CC(=O)N1CCCN(S(C)(=O)=O)CCN(Cc2cccc(F)c2O)Cc2ccccc21 [Compound 15] | inhibitory effects against some of TNF-a downstream genes |  |  |  |  |  |  |
| O=c1ccc(-c2ccccc2)nn1Cc1c(F)cccc1Cl [Compound 19] | inhibitory effects against some of TNF-a downstream genes | enhanced effects | reduce TNF-a-, not IL-17A-, receptor reporter activities | 7.46 µM | 98% | robust inhibitory effects | enhanced effects |
| O=C(CSc1c2c(nc3ccccc13)CCC2)Nc1ccc(F)cc1 [Compound 39] | inhibitory effects against some of TNF-a downstream genes; also recorded: robust inhibitory effects |  | reduce TNF-a-, not IL-17A-, receptor reporter activities | 8.91 µM | 78% |  |  |
